Results as given in patent US12351557B2, “Chemical compound manufacture, new salt form, and therapeutic uses thereof” (Eustralis Pharmaceuticals Limited (Trading As Pressura …, priority 2018, dated 2025).
Counter-ions that a name gives are not always drawn. Like-named read-outs stand apart in the source and are kept apart here.

What was measured:
[1] = Hydroscopicity (water sorption at 90% RH); type: physicochemical
[2] = Polymorphism risk assessment; details: 2HCl salt physicochemical summary
Method: Decomposition/melting range temperature and presence of solvate molecules are estimated from thermal analyses. The polymorphism risk was assessed base on the number of identified forms during this work and reproducibility of the salt screen target patterns.

[3] = Solubility of 2HCl salt in solvents; type: physicochemical
Method: A summary of the physicochemical characteristics of 2HCl salt of Compound of Formula (1) is provided below.
Solubility: very soluble in water ([…]0.2 mg/μL), freely soluble in ethanol (0.1-0.2 mg/μL), sparingly soluble in 1-propanol and acetonitrile (0.01-0.03 mg/μL).

[4] = pH of solution in purified water; type: physicochemical; details: 5 mg/mL solution in purified water
Method: pH: 2 to 3 (5 mg/mL solution in purified water).

[5] = Stability study, samples stored at 40° C./75% RH; type: physicochemical
[6] = Qualitative solubility of free base in 50 solvents; type: physicochemical; details: for Qualitative solubility in solvents: organic solvents, 50 solvents studied
Description: The solubility of compound of Formula (1) was first qualitatively studied in 50 solvents. In all SAS experiments, the amorphous free base of compound of formula (1) was obtained after evaporation of the experiments.

[7] = pKa estimate; type: physicochemical; details: free base

Compound: Cc1ccccc1-c1cc(N2CCN(C)CC2)ncc1C(=O)N(C)Cc1cc(C(F)(F)F)cc(C(F)(F)F)c1 [Compound of formula (1) 2HCl salt]
- Hydroscopicity (Water sorption at 90% RH) [1]: 3.2%
- Polymorphism [2]: Not detectable
- Solubility in 1-propanol ([3]; 1-propanol, sparingly soluble): 0.01 to 0.03 mg/µL
- Solubility in acetonitrile ([3]; acetonitrile, sparingly soluble): 0.01 to 0.03 mg/µL
- Solubility in ethanol ([3]; ethanol, freely soluble): 0.1 to 0.2 mg/µL
- pH [4]: 2 to 3
- Appearance (white to yellow powder) ([5]; 0 months): Complies
- Assay (% "as is") ([5]; 0 months): 95.0%
- Assay (% anhydrous) ([5]; 0 months): 100.0%
- Related Substances: Any other unknown ([5]; 0 months): RRT 0.89: 0.007%
- Related Substances: Intermediate 3 ([5]; 0 months): Int 3: 0.69%
- Related Substances: RRT - 0.89 ([5]; 0 months): RRT 0.85: 0.34%
- Related Substances: RRT - 1.27 ([5]; 0 months): RRT 1.27: 0.27%
- Related Substances: Total Impurities ([5]; 0 months): 1.37%
- Water Content ([5]; 0 months): 5.0%
- pH ([5]; 0 months): 2.31
- Appearance (white to yellow powder) ([5]; 1 month): Complies
- Assay (% "as is") ([5]; 1 month): 94.8%
- Assay (% anhydrous) ([5]; 1 month): 99.8%
- Related Substances: Any other unknown ([5]; 1 month): RRT 0.90: 0.07%
- Related Substances: Intermediate 3 ([5]; 1 month): Int 3: 0.71%
- Related Substances: RRT - 0.89 ([5]; 1 month): RRT 0.89: 0.36%
- Related Substances: RRT - 1.27 ([5]; 1 month): RRT 1.28: 0.27%
- Related Substances: Total Impurities ([5]; 1 month): 1.41%
- Water Content ([5]; 1 month): 4.99%
- pH ([5]; 1 month): 2.39
- Appearance (white to yellow powder) ([5]; 3 months): Complies
- Assay (% "as is") ([5]; 3 months): 94.5%
- Assay (% anhydrous) ([5]; 3 months): 100.1%
- Related Substances: Any other unknown ([5]; 3 months): RRT 0.91: 0.05%
- Related Substances: Intermediate 3 ([5]; 3 months): Int 3: 0.71%
- Related Substances: RRT - 0.89 ([5]; 3 months): RRT 0.90: 0.36%
- Related Substances: RRT - 1.27 ([5]; 3 months): RRT 1.27: 0.26
- Related Substances: Total Impurities ([5]; 3 months): 1.38%
- Water Content ([5]; 3 months): 5.58%
- pH ([5]; 3 months): 2.33
- Appearance (white to yellow powder) ([5]; 6 months): Complies
- Assay (% "as is") ([5]; 6 months): 94.6%
- Assay (% anhydrous) ([5]; 6 months): 99.7%
- Related Substances: Any other unknown ([5]; 6 months): RRT 0.91: 0.06%
- Related Substances: Intermediate 3 ([5]; 6 months): Int 3: 0.71%
- Related Substances: RRT - 0.89 ([5]; 6 months): RRT 0.90: 0.35%
- Related Substances: RRT - 1.27 ([5]; 6 months): RRT 1.27: 0.27%
- Related Substances: Total Impurities ([5]; 6 months): 1.39%
- Water Content ([5]; 6 months): 5.17%
- pH ([5]; 6 months): 2.47
- Appearance (white to yellow powder) ([5]; Initial Release): Complies
- Assay (% "as is") ([5]; Initial Release): 98.3%
- Assay (% anhydrous) ([5]; Initial Release): 99.3%
- Related Substances: Intermediate 3 ([5]; Initial Release): Int 3: 0.71%
- Related Substances: RRT - 0.89 ([5]; Initial Release): RRT 0.87: 0.35%
- Related Substances: RRT - 1.27 ([5]; Initial Release): RRT 1.27: 0.28%
- Related Substances: Total Impurities ([5]; Initial Release): 1.34%
- Water Content ([5]; Initial Release): 1.0%
- pH ([5]; Initial Release): 2.31

Compound: Cc1ccccc1-c1cc(N2CCN(C)CC2)ncc1C(=O)N(C)Cc1cc(C(F)(F)F)cc(C(F)(F)F)c1 [Compound of Formula (1), N-{[3,5-Bis(trifluoromethyl)phenyl]methyl}-N-methyl-4-(2-methylphenyl)-6-(4-methyl-1-piperazinyl)-3-pyridinecarboxamide]
- Qualitative solubility in solvents [6]: very soluble or soluble in many solvents
- Qualitative solubility in solvents ([6]; listed as free base): very soluble or soluble in almost all solvents
- Behaviour of water as solvent ([6]; water): antisolvent
- pKa ([7]; read-out: pKa 1 (estimate)): 7.54
- pKa ([7]; read-out: pKa 2 (estimate)): 4.05
